Reference: patent publication US12090140B2, “Non-sedating dexmedetomidine treatment regimens” (priority 2023, dated 2024)
Several values for one entry are separate records, joined by “and”; a condition that tells them apart may be missing. Equal entries are not always repeated. Structures can show the parent of a compound that is named as a salt. Where two headings read alike, the source gives them in different places.

Experiments:
[1] = cited from earlier work; for Mean clearance relative to subjects with normal hepatic function: IV infusion of 0.6 meg/kg over 10 minutes
[2] = tested on: adult patients and healthy adult subjects; settings: cited from earlier work
[3] = tested on: subjects suffering from schizophrenia; settings: for RASS values after infusion start, individual patients: IV infusion, treatment arm
Source text: Another Key Objective of the study was to determine the reduction in the level of agitation, as determined by their PEC score, at the doses to achieve a RASS of −1.
Patients 5, 7, 8 and 9 received placebo.

[4] = tested on: agitation in subjects suffering from schizophrenia
[5] = IV infusion
Source text: (§1) Mean infusion rate is 0.36 mcg/kg/hr with the maximum rate ranging from about 0.2 mcg/kg/hr to about 0.6 mcg/kg/hr (see FIGS. 18 to 20).

clinical = settings: human, in vivo, iv
Source text: as §1

plasma proteins = settings: in vitro; cited from earlier work
[6] = pH 7.4; cited from earlier work
[7] = IV infusion from 0.2 mcg/kg/hr, rising 0.1 mcg/kg/hr every 30 minutes

In the case of `Cc1cccc([C@H](C)c2c[nH]cn2)c1C` [intravenous dexmedetomidine], the “Effect of sex on pharmacokinetics” value ([1]; intravenous) is given as “no observed difference”, the “Mean clearance relative to subjects with normal hepatic function” value (shortened to “Mean clearance relative to subjects”) ([1]; mild hepatic impairment) is given as 74% and the “Mean clearance for free drug relative to subjects with normal hepatic function” value ([1]; mild hepatic impairment) is given as 59%. The “Mean clearance relative to subjects” value ([1]; moderate hepatic impairment) was 64%, the “Mean clearance for free drug relative to subjects with normal hepatic function” value ([1]; moderate hepatic impairment) was 51% and the “Mean clearance relative to subjects” value ([1]; severe hepatic impairment) was 53%. The “Mean clearance for free drug relative to subjects with normal hepatic function” value ([1]; severe hepatic impairment) was 32%, the Effects of overdose ([2]; IV 2 mcg/kg loading dose over 10 minutes, two patients) was “bradycardia and/or hypotension” and the “Maximum blood concentration in tolerability study” value ([2]; IV doses at and above 0.2 to 0.7 mcg/kg/hour, healthy adult subjects) was “approximately 13 times the upper boundary of the therapeutic range”. The “Most notable effects at the highest doses” value ([2]; IV tolerability study, two subjects) was “first degree atrioventricular block and second-degree heart block”, the “Adult patients with at least 1 event related to withdrawal, n (%)” value ([2]; IV up to 7 days, within the first 24 hours after discontinuing) was 12 (5%) and the “Adult patients with at least 1 event related to withdrawal, n (%)” value ([2]; IV, 24 to 48 hours after discontinuing) was 7 (3%). The “Frequency of tachycardia and hypertension requiring intervention” value ([2]; IV, 48 hours following discontinuation) was less than 5%.
In the case of `Cc1cccc([C@H](C)c2cnc[nH]2)c1C` [Dexmedetomidine hydrochloride, 4-[(1S)-1-(2,3-dimethylphenyl)ethyl]-1H-imidazole hydrochloride], the “RASS values after infusion start, individual patients” value (shortened to “RASS values after infusion start”) ([3]; 15 minutes, hydrochloride) is reported as −2 and −1, the “RASS values after infusion start” value ([3]; 30 minutes) is reported as 0 and the “RASS values after infusion start” value ([3]; 75 minutes) is reported as −1. For the same compound, the “RASS values after infusion start” value ([3]; 90 minutes) was 0, the “Patients achieving a RASS score of at least −1” value [3, 7] was 9 out of 10 and the “RASS values after infusion start” value ([3]; […]) was 0. The “Patients with agitation reduced to a minimum (PEC score of 7 or below)” value [4, 7] was 9 out of 10, the “Subjects with >=50% reduction in PEC score” value ([4]; IV route) was 7 of 10 and the “Subjects with a 40% reduction in PEC score at a Cmax of =<72 μg/mL” value ([4]; IV route) was 5 of 10. The Plasma level concentration ([5]; Patient 1 (treatment), 15 min) was 0.02245 ng/mL, the Plasma level concentration ([5]; Patient 1 (treatment), 30 min) was 0.01472 ng/mL and the Plasma level concentration ([5]; Patient 4 (treatment), 90 min) was 0.0443 ng/mL. The Plasma level concentration ([5]; Patient 11 (treatment), 15 min) was 0.04101 ng/mL, the Plasma level concentration ([5]; Patient 11 (treatment), 30 min) was 0.06291 ng/mL and the Plasma level concentration ([5]; Patient 11 (treatment), 45 min) was 0.12407 ng/mL. For the same compound, the Plasma level concentration ([5]; Patient 11 (treatment), 60 min) was 0.15047 ng/mL, the Plasma level concentration ([5]; Patient 12 (treatment), 30 min) was 0.04487 ng/mL and the Plasma level concentration ([5]; Patient 12 (treatment), 45 min) was 0.05051 ng/mL. It also gave a Plasma level concentration ([5]; Patient 12 (treatment), 60 min) of 0.1086 ng/mL, a Plasma level concentration ([5]; Patient 12 (treatment), 75 min) of 0.15854 ng/mL and a Plasma level concentration ([5]; Patient 12 (treatment), 90 min) of 0.23783 ng/mL. It also gave a Plasma level concentration ([5]; Patient 14 (treatment), 30 min) of 0.05266 ng/mL, a Plasma level concentration ([5]; Patient 14 (treatment), 45 min) of 0.04653 ng/mL and a Plasma level concentration ([5]; Patient 14 (treatment), 60 min) of 0.4063 ng/mL. It also gave a Plasma level concentration ([5]; Patient 16 (treatment), 15 min) of 0.00256 ng/mL, a Plasma level concentration ([5]; Patient 16 (treatment), 30 min) of 0.01559 ng/mL and a Plasma level concentration ([5]; Patient 16 (treatment), 45 min) of 0.04117 ng/mL. It also gave a Plasma level concentration ([5]; Patient 16 (treatment), 60 min) of 0.06788 ng/mL, a Plasma level concentration ([5]; Patient 16 (treatment), 75 min) of 0.07226 ng/mL and a Plasma level concentration ([5]; Patient 17 (treatment), 15 min) of 0.01587 ng/mL. For the same compound, the Plasma level concentration ([5]; Patient 17 (treatment), 45 min) was 0.03993 ng/mL, the Plasma level concentration ([5]; Patient 18 (treatment), 15 min) was 0.04836 ng/mL and the Plasma level concentration ([5]; Patient 18 (treatment), 30 min) was 0.05453 ng/mL. For the same compound, the Cmax (clinical) was 0.022 ng/mL, the “Displacement of phenytoin, warfarin, ibuprofen, propranolol, theophylline and digoxin” value (plasma proteins) was “none of these compounds appeared to be significantly displaced” and the “Partition coefficient in octanol/water” value [6] was 2.89.
